Assay results from ChEMBL document CHEMBL1201862, “PubChem BioAssay data set” (2004).
The source made the active and inactive calls.

Experiments:
[1] = cells; settings: HEK293
[2] = target: Induced myeloid leukemia cell differentiation protein Mcl-1 (Homo sapiens, UniProt Q07820); test: blockers of MCL1 binding to BIM peptide – biochemical, fluorescence polarization, BIM-BH3 peptide, 1536-well, dose response (AID 2217)
[3] = NIH-3T3 fibroblast cytotoxicity, dose response, cytotoxicity control, cell-based, fluorescence, Alamar Blue, secondary assay (AID 2327); assay type: functional;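 further: NIH-3T3 mouse fibroblasts cultured with fluconazole at 8 µg/mL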
[4] = fluconazole-exposed Candida albicans growth modulators – fluorescence, retest, confirmation (AID 2467); assay type: functional, cell-based
[5] = target: Bcl-2-like protein 1 (Homo sapiens, UniProt Q07817); test: blockers of BCLXL peptide binding – biochemical, fluorescence polarization, 1536-well, selectivity assay for MCL1 inhibitor project, dose response (AID 2218)
Sequence of Bcl-2-like protein 1 (Q07817 whole entry): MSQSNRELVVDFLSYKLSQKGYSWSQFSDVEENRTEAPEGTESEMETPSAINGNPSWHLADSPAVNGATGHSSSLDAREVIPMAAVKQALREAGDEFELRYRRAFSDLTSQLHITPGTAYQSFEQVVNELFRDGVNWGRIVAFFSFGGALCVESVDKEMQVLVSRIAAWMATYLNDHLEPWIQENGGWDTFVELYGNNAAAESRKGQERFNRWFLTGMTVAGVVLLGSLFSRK

[6] = cytotoxicity in mouse C2C12 myoblasts – cell-based, CellTiter-Glo ATP luminescence, 8/24/48 h, dry powder, cytotoxicity control for HRAS target identification, dose response (AID 720603); assay type: functional
[7] = cytotoxicity in CCRF-CEM lymphoblastic leukemia cells – cell-based, CellTiter-Glo ATP luminescence, 8/24/48 h, dry powder, HRAS target identification, dose response (AID 720607); assay type: functional
[8] = cytotoxicity in SR immunoblastic lymphoma cells – cell-based, CellTiter-Glo ATP luminescence, 8-48 h, dry powder, mechanism study for HRAS target identification, late-stage follow-up (AID 720608); assay type: functional
[9] = cytotoxicity in SNB-19 cells – cell-based, CellTiter-Glo ATP luminescence, 8-48 h, dry powder, mechanism study for HRAS target identification, late-stage follow-up (AID 720611); assay type: functional
[10] = cytotoxicity in LOX IMVI melanoma cells – cell-based, CellTiter-Glo ATP luminescence, 8/24/48 h, dry powder, HRAS target identification, dose response (AID 720602); assay type: functional
[11] = cytotoxicity in SNB-19 CNS tumor cells – cell-based, Alamar Blue fluorescence, 8/24/48 h, dry powder, HRAS target identification, dose response (AID 720600); assay type: functional
[12] = time-course viability loss in HT-29 cells – cell-based, CellTiter-Glo, multiple timepoints, dry powder, HRas target identification project, dose response (AID 720598); assay type: functional
[13] = cytotoxicity in U-251 CNS tumor cells – cell-based, Alamar Blue fluorescence, 8/24/48 h, dry powder, HRAS target identification, dose response (AID 720605); assay type: functional
[14] = IC50 of insulin release inhibition, rat insulinoma INS-1E line, 5 mM glucose, cell-based (AID 1117331); assay type: functional
[15] = cells; assay type: functional, cell-based; settings: INS-1E
[16] = target: Heat shock protein HSP 90-alpha (Homo sapiens, UniProt P07900); test: Luminescence-based dose response biochemical high throughput screening assay for inhibitors of the Heat Shock Protein 90 (HSP90). [Related pubchem assays: 1831 (Summary AID.), 1846 (Confirmation screen.), 1789 (Primary screen.)]
[17] = Dd2 malaria parasite growth inhibition potency – SYBR Green, dry powder samples, dose response (AID 1159566); assay type: functional, cell-based;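 further: potency for growth inhibition with lower SYBR green DNA signal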
[18] = Plasmodium falciparum Dd2 Sybr green parasite growth Measured in Cell-Based and Microorganism Combination System Using Plate Reader - 2153-01_Inhibitor_Dose_DryPowder_Activity_Set3.; assay type: functional
[19] = growth inhibition of yeast DHODH-expressing 3D7 parasites – SYBR Green, dry powder samples, dose response (AID 1159570); assay type: functional, cell-based;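 further: parasite growth measured after 72 hours of compound exposure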
[20] = Dd2 parasite growth inhibition in erythrocytes – SYBR Green, dry powder samples, set 9, dose response (AID 1159568); assay type: functional, cell-based
[21] = growth inhibition of PfATP4-mutant resistant parasites – NITD609-resistant line, SYBR Green, dry powder, dose response (AID 1159571); assay type: functional, cell-based;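 further: parasites synchronized at ring stage by sorbitol before testing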
[22] = P. falciparum Dd2 growth inhibitors, dose response, SYBR Green, cherry-picked samples (AID 1159567); assay type: functional, cell-based
[23] = target: Transthyretin (Homo sapiens, UniProt P02766); test: Luminescence-based cell-based high throughput dose response assay to identify activators of Transthyretin (TTR) transcription.; assay type: functional
[24] = NIH3T3 cell viability loss – ATP luminescence, mouse fibroblasts, counter-screen, dose response (AID 2010); assay type: functional, cell-based;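 further: cells exposed to compound for about 90 hours before reading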
[25] = viability loss of HPDE-C7K cells – cell-based, fluorescence, HTS, primary screen (AID 431); assay type: functional; settings: Homo sapiens
[26] = HEK-293T cell viability reduction – luminescence, B-cell screen hits, cytotoxicity control for BCR NF-kB inhibitor project, dose response (AID 489021); assay type: functional, cell-based;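 further: HEK-293T cells carrying an NF-kB luciferase reporter; cells exposed to compound for about 14 hours before viability readout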
[27] = viability of PTEN-deleted HCT116 cells – cell-based, HCT116 PTEN knockout, dose response (AID 1047); assay type: functional;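 further: HCT116 colon tumor cells with PTEN knocked out; cells exposed to compound for 60 hours before readout; potency for loss of cell viability measured by luminescence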
[28] = HPDE-C7 pancreatic duct cell viability loss – fluorescence, HTS (AID 430); assay type: functional, cell-based; settings: Homo sapiens
[29] = microbe, parasite or virus in culture; assay type: functional; settings: Mycobacterium tuberculosis
[30] = Trypanosoma cruzi growth suppression in host cells – NIH3T3 host cells, beta-gal luminescence, confirmation (AID 2044); assay type: functional, cell-based;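 further: intracellular parasites grown in NIH/3T3 mouse fibroblasts as host cells; luminescent beta-galactosidase reporter signal from transgenic T. cruzi replicating inside host cells; inhibitors lower the luminescence signal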
[31] = viability of HCT116 lacking mutant beta-catenin – cell-based, human colon tumor, dose response (AID 1045); assay type: functional;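 further: HCT116 colon tumor cells with beta catenin knocked out; cells exposed to compound for 60 hours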

Sequence of Induced myeloid leukemia cell differentiation protein Mcl-1 (Q07820 whole entry): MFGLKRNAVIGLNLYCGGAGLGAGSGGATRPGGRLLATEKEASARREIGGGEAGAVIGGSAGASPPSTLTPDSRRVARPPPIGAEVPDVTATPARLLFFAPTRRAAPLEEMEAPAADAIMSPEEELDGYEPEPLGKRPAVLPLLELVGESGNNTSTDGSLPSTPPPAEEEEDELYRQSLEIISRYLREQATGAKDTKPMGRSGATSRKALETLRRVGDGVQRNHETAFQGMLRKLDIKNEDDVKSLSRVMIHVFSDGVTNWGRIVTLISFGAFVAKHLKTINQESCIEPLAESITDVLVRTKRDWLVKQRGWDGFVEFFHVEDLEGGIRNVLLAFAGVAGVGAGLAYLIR

For Cc1ccc(C(C)C)c(OCCn2/c(=N/C#N)[nH]c3ccccc32)c1, the AC50 [1] was 34 µM (active).
In the case of C=CCc1cccc(/C=N/NC(=O)CNc2cccc3ccccc23)c1O, the IC50 [2] is reported as > 109 µM (not active), the EC50 [3] is reported as > 150 µM (inactive) and the EC50 [4] is reported as 3.28 µM (active). The IC50 [5] was > 109 µM (not active).
For C#CCCCC(=O)NCCOCCOCCOc1ccc(N(C(=O)CCl)C(C(=O)NCCc2ccccc2)c2cccs2)cc1Cl (stereo unspecified), the AC50 [6] was 16.6 µM (active), the AC50 [7] was 1.38 µM (active) and the AC50 [8] was 1.18 µM (active). The AC50 [9] was 4.54 µM (active), the AC50 [10] was 0.993 µM (active) and the AC50 [11] was 22.4 µM (active). For the same compound, the AC50 [12] was 4.9 µM (active) and the AC50 [13] was 1.25 µM (active).
For CCOc1cc(CC(=O)N[C@@H](CC(C)C)c2ccccc2N2CCCCC2)ccc1C(=O)O [REPAGLINIDE], the IC50 [14] was 0.027 µM (active) and the IC50 [15] was 0.136 µM (active).
With Cc1nc(NC(=O)/C=C/c2ccccc2)sc1C(=O)Nc1ccccc1Cl the IC50 [16] was 2.91 µM (active).
In the case of CO[C@@H]1CN(C)C(=O)c2ccc(NC(=O)Nc3ccccc3F)cc2OC[C@@H](C)N(Cc2ccccc2F)C[C@H]1C, the AC50 [17] is reported as 0.0449 µM (active), the AC50 [18] is reported as 0.586 µM (active) and the AC50 [19] is reported as 0.948 µM (active). The AC50 [20] was 0.674 µM (active), the AC50 [21] was 0.122 µM (active) and the AC50 [22] was 0.356 µM (active).
In the case of CC(Oc1ccccc1)C(=O)N1CCN=C1SCc1ccccc1 (stereo unspecified), the EC50 [23] is reported as > 167 µM (inactive).
In the case of CCC(C)NC(=O)c1c(N)n(/N=C/c2ccccn2)c2nc3ccccc3nc12 (stereo unspecified), the EC50 [24] is reported as > 30 µM (not active), the EC50 [25] is reported as 6.39 µM (active) and the IC50 [26] is reported as 43.2 µM (inactive). The EC50 [27] was 32.3 µM (active), the EC50 [28] was 4.73 µM (active) and the CC50 [29] was > 40 µM (active). For the same compound, the EC50 [30] was 2.18 µM (active) and the EC50 [31] was 30.2 µM (active).
